From patent publication US20110112147A1, “INDAZOLONE ANALOGS AS GLYCOGEN SYNTHASE ACTIVATORS” (priority 2009, published 2011)

Tested on: glycogen synthase
Assay: Glycogen Synthase (GS) Assay
Format: biochemical
Conditions: for EC50: compound concentration needed to give 50% maximum activation; for GS SC200: compound concentration needed to stimulate 200% of the enzyme activity
Method: Twelve μL per well of substrate solution containing glycogen (4.32 mg/ml), 2.67 mM UDP-glucose, 21.6 mM phospho(enol)pyruvate and 2.7 mM NADH in 30 mM glycylglycine, pH 7.3 buffer was added into a polystyrene 384-well assay plate (BD Biosciences).
Compound solutions (8 μL/well) at various concentrations (0-300 μM) were added to the assay plate (columns 5-24). Compound solution contains 30 mM glycylglycine, pH 7.3, 40 mM KCl, 20 mM MgCl2, 9.2% DMSO, with (columns 15-24) or without (columns 5-14) 20 mM glucose 6-phosphate.
Enzyme solution (12 μL/well) containing glycogen synthase (16.88 μg/ml), pyruvate kinase (0.27 mg/ml), lactate dehydrogenase (0.27 mg/ml) in 50 mM Tris-HCl, pH 8.0, 27 mM DTT and bovine serum albumin (BSA, 0.2 mg/ml) was added to the assay plate (columns 3-24). As a blank control, enzyme solution without glycogen synthase was added into the top half wells of columns 1-2. To the bottom half wells of columns 1-2 were added a known activator, glucose 6-phosphate (at final concentration 5 mM) in addition to the enzyme solution. The reaction mixture was incubated at room temperature. The assay plate was then read for absorbance at 340 nm on an Envision reader every 3 minutes up to a total of 15 minutes.
The enzyme activity (with or without compound) was calculated by the reaction rate and represented by the optical density change (δOD) per minute. Percent stimulation of glycogen synthase activity by a compound at various concentrations was calculated by the following formula: […]
wherein Rs is the reaction rate of the enzyme in the presence of compound and Rt is the reaction rate of the enzyme in the absence of compound.
SC200 is defined as the compound concentration that is needed to stimulate 200% of the enzyme activity. EC50 is defined as the compound concentration that is needed to give 50% maximum activation.

Row | Structure (SMILES) | EC50 | GS SC200
1 | Cc1cc(F)c(F)cc1-c1ccc(OCc2cccc3c(=O)n(C)[nH]c23)cc1 [Example 1, 7-(4′,5′-Difluoro-2′-methyl-biphenyl-4-yloxymethyl)-2-methyl-1,2-dihydro-indazol-3-one] | 240 nM | 0.13 µM
2 | Cn1[nH]c2c(COc3ccc(-c4cc(F)c(F)cc4F)cc3)cccc2c1=O [Example 2, 2-Methyl-7-(2′,4′,5′-trifluoro-biphenyl-4-yloxymethyl)-1,2-dihydro-indazol-3-one] | 1780 nM | 0.49 µM
3 | COc1cc(F)c(F)cc1-c1ccc(OCc2cccc3c(=O)n(C)[nH]c23)cc1 [Example 3, 7-(4′,5′-Difluoro-2′-methoxy-biphenyl-4-yloxymethyl)-2-methyl-1,2-dihydro-indazol-3-one] | 330 nM | 0.04 µM
4 | O=C(O)Cn1[nH]c2c(COc3ccc(-c4cc(F)c(F)cc4F)cc3)cccc2c1=O [Example 4, [3-oxo-7-(2′,4′,5′-trifluoro-biphenyl-4-yloxymethyl)-1,3-dihydro-indazol-2-yl]-acetic acid] | 1200 nM | 0.69 µM
5 | COc1cc(F)c(F)cc1-c1ccc(OCc2cccc3c(=O)n(CC(=O)O)[nH]c23)cc1 [Example 5, [7-(4′,5′-Difluoro-2′-methoxy-biphenyl-4-yloxymethyl)-3-oxo-1,3-dihydro-indazol-2-yl]-acetic acid] | 200 nM | 0.06 µM
6 | COCCn1[nH]c2c(COc3ccc(-c4cc(F)c(F)cc4F)cc3)cccc2c1=O.Cl [Example 6, 2-(2-Methoxy-ethyl)-7-(2′,4′,5′-trifluoro-biphenyl-4-yloxymethyl)-1,2-dihydro-indazol-3-one Hydrochloride] | 790 nM | 0.52 µM
7 | COCCn1[nH]c2c(COc3ccc(-c4cc(F)c(F)cc4OC)cc3)cccc2c1=O [Example 7, 7-(4′,5′-Difluoro-2′-methoxy-biphenyl-4-yloxymethyl)-2-(2-methoxy-ethyl)-1,2-dihydro-indazol-3-one] | 370 nM | 0.11 µM
8 | O=c1c2cccc(COc3ccc(-c4cc(F)c(F)cc4F)cc3)c2[nH]n1CCO [Example 8, 2-(2-Hydroxy-ethyl)-7-(2′,4′,5′-trifluoro-biphenyl-4-yloxymethyl)-1,2-dihydro-indazol-3-one] | 770 nM | 0.22 µM
9 | Cc1cc(F)c(F)cc1-c1ccc(OCc2cccc3c(=O)n(CC(=O)O)[nH]c23)cc1.Cl [Example 9, [7-(4′,5′-Difluoro-2′-methyl-biphenyl-4-yloxymethyl)-3-oxo-1,3-dihydro-indazol-2-yl]acetic acid Hydrochloride] | 420 nM | 0.33 µM
10 | Cc1cc(F)c(F)cc1-c1ccc(OCc2cccc3c(=O)n(-c4ccc(F)cc4)[nH]c23)cc1 [Example 10, 7-(4′,5′-Difluoro-2′-methyl-biphenyl-4-yloxymethyl)-2-(4-fluoro-phenyl)-1,2-dihydro-indazol-3-one] | 1470 nM | 1.86 µM
11 | COc1cc(F)c(F)cc1-c1ccc(OCc2cccc3c(=O)n(-c4ccc(F)cc4)[nH]c23)cc1 [Example 11, 7-(4′,5′-Difluoro-2′-methoxy-biphenyl-4-yloxymethyl)-2-(4-fluoro-phenyl)-1,2-dihydro-indazol-3-one] | 1370 nM | 2.01 µM
12 | COc1cc(F)c(F)cc1-c1ccc(OCc2cccc3c(=O)n(-c4cccnc4)[nH]c23)cc1 [Example 12, 7-(4′,5′-Difluoro-2′-methoxy-biphenyl-4-yloxymethyl)-2-pyridin-3-yl-1,2-dihydro-indazol-3-one] | 780 nM | 0.60 µM
13 | Cl.O=c1c2cccc(COc3ccc(-c4cc(F)c(F)cc4F)cc3)c2[nH]n1-c1cccnc1 [Example 13, 2-Pyridin-3-yl-7-(2′,4′,5′-trifluoro-biphenyl-4-yloxymethyl)-1,2-dihydro-indazol-3-one Hydrochloride] | 4010 nM | 2.75 µM
14 | O=c1c2cccc(COc3ccc(-c4cc(F)c(F)cc4Cl)cc3)c2[nH]n1-c1cccnc1 [Example 14, 7-(4′,5′-Difluoro-2′-chloro-biphenyl-4-yloxymethyl)-2-pyridin-3-yl-1,2-dihydro-indazol-3-one] | 1860 nM | 1.14 µM
15 | O=c1c2cccc(COc3ccc(-c4cc(F)c(F)cc4F)cc3)c2[nH]n1C[C@@H](O)CO [Example 15, 2-((R)-2,3-Dihydroxy-propyl)-7-(2′,4′,5′-trifluoro-biphenyl-4-yloxymethyl)-1,2-dihydro-indazol-3-one] | 680 nM | 0.32 µM
16 | O=c1c2cccc(COc3ccc(-c4cc(F)c(F)cc4F)cc3)c2[nH]n1C[C@H](O)CO [Example 16, 2-((S)-2,3-Dihydroxy-propyl)-7-(2′,4′,5′-trifluoro-biphenyl-4-yloxymethyl)-1,2-dihydro-indazol-3-one] | 580 nM | 0.41 µM
17 | COc1cc(F)c(F)cc1-c1ccc(OCc2cccc3c(=O)n(C[C@@H](O)CO)[nH]c23)cc1 [Example 17, 7-(4′,5′-Difluoro-2′-methoxy-biphenyl-4-yloxymethyl)-2-((R)-2,3-dihydroxy-propyl)-1,2-dihydro-indazol-3-one] | 270 nM | 0.06 µM
18 | COc1cc(F)c(F)cc1-c1ccc(OCc2cccc3c(=O)n(C[C@H](O)CO)[nH]c23)cc1 [Example 18, 7-(4′,5′-Difluoro-2′-methoxy-biphenyl-4-yloxymethyl)-2-((S)-2,3-dihydroxy-propyl)-1,2-dihydro-indazol-3-one] | 250 nM | 0.07 µM
19 | Cc1cc(F)c(F)cc1-c1ccc(OCc2cccc3c(=O)n(C[C@@H](O)CO)[nH]c23)cc1 [Example 19, 7-(4′,5′-Difluoro-2′-methyl-biphenyl-4-yloxymethyl)-2-((R)-2,3-dihydroxy-propyl)-1,2-dihydro-indazol-3-one] | 230 nM | 0.10 µM
20 | Cc1cc(F)c(F)cc1-c1ccc(OCc2cccc3c(=O)n(C[C@H](O)CO)[nH]c23)cc1 [Example 20, 7-(4′,5′-Difluoro-2′-methyl-biphenyl-4-yloxymethyl)-2-((S)-2,3-dihydroxy-propyl)-1,2-dihydro-indazol-3-one] | 340 nM | 0.11 µM
21 | O=c1c2cccc(COc3ccc(-c4cc(F)c(F)cc4Cl)cc3)c2[nH]n1C[C@@H](O)CO [Example 21, 7-(2′-Chloro-4′,5′-difluoro-biphenyl-4-yloxymethyl)-2-((R)-2,3-dihydroxy-propyl)-1,2-dihydro-indazol-3-one] | 260 nM | 0.25 µM
22 | O=c1c2cccc(COc3ccc(-c4cc(F)c(F)cc4Cl)cc3)c2[nH]n1C[C@H](O)CO [Example 22, 7-(2′-Chloro-4′,5′-difluoro-biphenyl-4-yloxymethyl)-2-((S)-2,3-dihydroxy-propyl)-1,2-dihydro-indazol-3-one] | 300 nM | 0.16 µM
